Measured values reported in patent publication US20250381143A1, “A SOLID PHARMACEUTICAL COMPOSITION” (ADLAI NORTYE BIOPHARMA CO., LTD., priority 2021, published 2025).

Test: Biopharmaceutical Classification System class
Format: physicochemical
From the text: The present disclosure relates to a quality controllable solid dosage form and a process for its preparation, wherein the solid dosage form comprises a compound of formula 1 4-{(1S)-1-[({3-(difluoromethyl)-1-methyl-5-[3-(trifluoromethyl)phenoxy]-4-1H-pyrazolyl} carbonyl)amino]ethyl}benzoic acid (compound AN0025) and optionally at least one pharmaceutically acceptable carrier. […] The inventor unexpectedly found in the experiment that AN0025 tablets prepared by different processes can show good uniformity in in vitro dissolution experiments, and AN0025 tablets prepared with different API particle sizes have similar in vitro dissolution behavior and in vivo exposure.

In the case of `C[C@H](NC(=O)c1c(C(F)F)nn(C)c1Oc1cccc(C(F)(F)F)c1)c1ccc(C(=O)O)cc1` [AN0025, 4-{(1S)-1-[({3-(difluoromethyl)-1-methyl-5-[3-(trifluoromethyl)phenoxy]-4-1H-pyrazolyl}carbonyl)amino]ethyl}benzoic acid], the “Biopharmaceutical Classification System class” value is reported as “class IV” and the solubility (as per BCS class) is reported as “low solubility”.
